Results on 9 compounds are retold here after PubChem BioAssay (NCI).

Some test systems named below: HOP-92 NSCLC; SN12C renal; UACC-257 melanoma; T-47D breast; A549 NSCLC; SNB-19 CNS; SR leukemia; NCI-H226 lung; RXF 393 renal; SK-OV-3 ovarian.
Common to all, as to test: inhibition of tumour cell growth, NCI panel, 48 h

Values joined by “and” are separate entries in the source; they are usually repeats but may differ in a detail not shown here. Equal entries are not always repeated.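 Where inhibition never reached the appropriate level, the endpoint shown equals the highest concentration tested. Otherwise, values were interpolated linearly from a five-concentration, 48-hour dose response in 96-well plates. At the GI50, growth is halved. TGI: concentration producing complete growth inhibition.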

For `CCCCCCCC/C=C/CCCCCCCC(=O)OC[C@H]1O[C@@H](n2ccc(N)nc2=O)C(F)(F)[C@@H]1O`, the GI50 is 141 nM in the assay on HOP-92 NSCLC; 38.8 nM in the assay with SN12C renal; 39 nM with UACC-257 melanoma; 152 nM in the assay with T-47D breast; less than 0.0174 µM in the assay with A549 NSCLC; less than 41.9 nM in the assay with SNB-19 CNS. Moreover, the GI50 with SR leukemia is less than 13.4 nM; with NCI-H226 lung, 333 nM; in the assay on RXF 393 renal, 67.5 nM; in the assay with SK-OV-3 ovarian, 272 nM. In addition, the TGI in the assay on HOP-92 NSCLC is 34.7 µM; in the assay with SN12C renal it was more than 47.2 µM; with UACC-257 melanoma, more than 100 µM; in the assay with T-47D breast, more than 100 µM; with A549 NSCLC it was more than 70.1 µM; in the assay on SNB-19 CNS it was more than 43.5 µM. For the same compound, the TGI with SR leukemia is 11.1 µM; in the assay on NCI-H226 lung it was more than 61.3 µM; in the assay with RXF 393 renal, more than 49.2 µM; in the assay with SK-OV-3 ovarian, more than 100 µM.

With `NS(=O)(=O)c1ccc(NC2(C(=O)O)CCCC2)cc1`, the TGI in the assay with HOP-92 NSCLC, in the assay on SN12C renal, with UACC-257 melanoma, in the assay with T-47D breast, in the assay with A549 NSCLC and in the assay on SNB-19 CNS was more than 100 µM in each case. In addition, the TGI with SR leukemia, in the assay with NCI-H226 lung, in the assay with RXF 393 renal and in the assay on SK-OV-3 ovarian was more than 100 µM each time.

Consider `CCCN1CCC(=O)N(CCC(F)(F)C(F)(F)C(F)(F)C(F)(F)C(F)(F)C(F)(F)F)C1=S`, for which the TGI in the assay with HOP-92 NSCLC, in the assay on SN12C renal, with UACC-257 melanoma, with T-47D breast, with A549 NSCLC and in the assay with SNB-19 CNS was more than 100 µM in each case. The TGI in the assay with SR leukemia, in the assay with NCI-H226 lung, in the assay on RXF 393 renal and in the assay with SK-OV-3 ovarian was more than 100 µM throughout.

Regarding `C=C1C(=O)O[C@@H]2/C=C(\C)CC/C=C(/COC(C)=O)C[C@@H](OC(C)=O)[C@@H]12`, the TGI with HOP-92 NSCLC is 21.1 µM; with SN12C renal it was 24.9 µM; in the assay on UACC-257 melanoma, 32.2 µM; in the assay on T-47D breast, 26.6 µM; with A549 NSCLC, more than 100 µM; in the assay with SNB-19 CNS, more than 95.9 µM. Besides, the TGI in the assay with SR leukemia was 7.39 µM; with NCI-H226 lung it was 64.1 µM; in the assay with RXF 393 renal, 24.2 µM; in the assay with SK-OV-3 ovarian it was more than 100 µM.

As to `c1cc(CNC23CC4CC(CC(C4)C2)C3)cc(C[N+](Cc2cccc(CNC34CC5CC(CC(C5)C3)C4)c2)(Cc2cccc(CNC34CC5CC(CC(C5)C3)C4)c2)Cc2cccc(CNC34CC5CC(CC(C5)C3)C4)c2)c1` (configuration not stated), the GI50 in the assay with HOP-92 NSCLC was 4740 nM; in the assay with SN12C renal, 5900 nM; in the assay on UACC-257 melanoma, 12900 nM; in the assay with T-47D breast, 5590 nM; with A549 NSCLC, 8.91 µM; in the assay with SNB-19 CNS it was 8050 nM. The GI50 in the assay on SR leukemia was 6220 nM; in the assay with NCI-H226 lung, 11500 nM; in the assay on RXF 393 renal, 3390 nM; with SK-OV-3 ovarian, 21400 nM. Also, the TGI in the assay on HOP-92 NSCLC came to 12.8 µM; in the assay with SN12C renal it was 18.5 µM; in the assay with UACC-257 melanoma, 45.3 µM; in the assay on T-47D breast it was 28.1 µM; with A549 NSCLC, 36.4 µM; with SNB-19 CNS, 30.4 µM. Also, the TGI with SR leukemia was found to be 209 µM; with NCI-H226 lung it was 45.3 µM; in the assay with RXF 393 renal, 6.54 µM; in the assay on SK-OV-3 ovarian, 47.7 µM.

Regarding `COc1cccc2c1C(=O)c1c(O)c3c(c(O)c1C2=O)C[C@@](O)(C(C)=O)C[C@@H]3OC1OC(C)C(O)C(N)C1Br` (some centres not stated), the GI50 was 60.2 nM with HOP-92 NSCLC; 18 nM in the assay on SN12C renal; 123 nM in the assay with UACC-257 melanoma; 25 nM in the assay with SNB-19 CNS; 13.4 nM in the assay on NCI-H226 lung; 31.4 nM in the assay on SK-OV-3 ovarian. Moreover, the TGI in the assay on HOP-92 NSCLC was 0.422 µM and 0.474 µM; in the assay on SN12C renal, 0.307 µM and 1.12 µM; in the assay with UACC-257 melanoma it was 0.487 µM and 1.14 µM; in the assay on T-47D breast, 0.74 µM; in the assay with A549 NSCLC, 0.262 µM; in the assay on SR leukemia, 0.0185 µM. Besides, the TGI was 0.0714 µM and 0.0818 µM with NCI-H226 lung; 0.661 µM and 0.864 µM in the assay on RXF 393 renal; 0.288 µM and 0.323 µM in the assay with SK-OV-3 ovarian.

On to `CN1C/C=C\CCOc2cccc(c2)-c2ccnc(n2)Nc2cccc(c2)C1`, for which the GI50 was 34.9 nM in the assay with HOP-92 NSCLC; 55.6 nM in the assay with SN12C renal; 72.2 nM in the assay on UACC-257 melanoma; 41.3 nM with T-47D breast; 0.0469 µM in the assay on A549 NSCLC; 57 nM in the assay with SNB-19 CNS. The GI50 in the assay with SR leukemia was 19.6 nM; in the assay on NCI-H226 lung, 69.2 nM; in the assay with RXF 393 renal, 22.1 nM; in the assay with SK-OV-3 ovarian it was 209 nM. Also, the TGI in the assay on HOP-92 NSCLC worked out at 0.227 µM; with SN12C renal, 1.45 µM; in the assay with UACC-257 melanoma, 0.371 µM; with T-47D breast, 0.334 µM; with A549 NSCLC, 0.8 µM; in the assay on SNB-19 CNS it was 4.25 µM. Also, the TGI with SR leukemia came out at 0.116 µM; with NCI-H226 lung it was 1.3 µM; in the assay with RXF 393 renal it was 0.0501 µM; in the assay on SK-OV-3 ovarian, 2.16 µM.

Take `NCC1Nc2ccccc2[C@@H](O)C1O` (some centres not stated): the TGI in the assay on HOP-92 NSCLC, with SN12C renal, in the assay on UACC-257 melanoma, with T-47D breast, with A549 NSCLC and in the assay with SNB-19 CNS was more than 100 µM each time. Also, the TGI in the assay on SR leukemia, in the assay on NCI-H226 lung, in the assay on RXF 393 renal and with SK-OV-3 ovarian was more than 100 µM in each case.

With `CC(=O)/C(C)=N/NC(=O)c1ccccc1O`, the TGI with HOP-92 NSCLC is more than 10 µM; in the assay with SN12C renal, more than 100 µM; in the assay with UACC-257 melanoma, more than 100 µM; in the assay on T-47D breast, more than 100 µM; with A549 NSCLC, more than 100 µM; in the assay on SNB-19 CNS, more than 100 µM. The TGI in the assay on SR leukemia, with NCI-H226 lung, in the assay on RXF 393 renal and with SK-OV-3 ovarian was more than 100 µM each time. The GI50 is more than 100000 nM in the assay on SN12C renal; more than 100000 nM in the assay with UACC-257 melanoma; more than 100 µM in the assay with A549 NSCLC; more than 100000 nM in the assay on SNB-19 CNS; more than 100000 nM in the assay with NCI-H226 lung; more than 100000 nM in the assay on RXF 393 renal. Besides, in the assay with SK-OV-3 ovarian, the GI50 is more than 100000 nM.
